Strand notation (5' to 3'): a small letter for the sugar, then the base; units joined by * are phosphorothioate-linked, units joined directly phosphodiester-linked; [ ] holds rarer units or linkages, { } end groups; capitals alone tell only the bases. e = 2'-O-(2-methoxyethyl) (MOE); [5mC] = 5-methylcytosine; d = 2'-deoxy (DNA)

One data set concerns human Factor 7 mRNA. Description: Antisense inhibition of human Factor 7 mRNA in HepB3 cells, 50 nM antisense oligonucleotide, lipofectin. The format is cell-based. The settings on record: gapmers targeted to nucleobases 4868 to 4899 of SEQ ID NO: 1, Table 8. Put shortly:
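HepB3 cells were transfected by lipofectin with 50 nM antisense oligonucleotide and harvested after about 24 h. Factor 7 mRNA was measured by real-time RT-PCR (primer probe set RTS 2927 in some runs), normalized to RIBOGREEN total RNA, and reported as percent inhibition versus untreated control.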
With “416509 (antisense eA*eG*eG*eA*eG*d[5mC]*d[5mC]*d[5mC]*dG*dA*dG*dT*dT*d[5mC]*dT*eG*e[5mC]*eA*eG*eG) [compound 416509]”, the “% Inhibition of human Factor 7 mRNA levels” value is given as 60%.

Staying with this data set, now noted: lipofectin, 50 nM antisense oligonucleotide, approximately 24 hours, Factor 7 mRNA by real-time RT-PCR (RTS 2927), relative to untreated control.
On to “416501 (antisense e[5mC]*eT*eG*e[5mC]*e[5mC]*d[5mC]*dT*dT*d[5mC]*d[5mC]*dA*d[5mC]*d[5mC]*dA*dA*eG*eT*eT*eT*eA) [compound 416501]”, for which the “% Inhibition” value is recorded as 18%. Same read-out and setting: with “416502 (antisense eG*eT*eT*e[5mC]*eT*dT*dT*dG*dA*dA*dA*dA*dA*dT*dA*eA*eT*e[5mC]*e[5mC]*e[5mC]) [compound 416502]” the figure was 22%; with “416503 (antisense eT*eA*eG*e[5mC]*e[5mC]*dA*d[5mC]*d[5mC]*d[5mC]*d[5mC]*dG*d[5mC]*dG*dG*dG*e[5mC]*eT*eG*eG*e[5mC]) [compound 416503]”, 0%. Regarding “416504 (antisense eT*e[5mC]*eA*eG*eA*dA*dA*dA*dG*d[5mC]*dT*d[5mC]*dT*d[5mC]*dA*eA*eG*eA*eA*e[5mC]) [compound 416504]”, the “% Inhibition” value is on record as 0%. For the substance “416505 (antisense eG*e[5mC]*eA*eG*eA*dT*dT*dT*dG*d[5mC]*dA*dT*d[5mC]*dA*dG*eA*eA*eA*eA*eG) [compound 416505]”, the “% Inhibition” value is reported as 45%. The same measure, in the same setting: under “416506 (antisense e[5mC]*eT*eT*eT*eA*dA*dA*dA*dT*d[5mC]*dA*dG*dT*dT*dT*e[5mC]*eA*e[5mC]*eA*e[5mC]) [compound 416506]” stands 18%. Same read-out and setting: under “416509 (antisense eA*eG*eG*eA*eG*d[5mC]*d[5mC]*d[5mC]*dG*dA*dG*dT*dT*d[5mC]*dT*eG*e[5mC]*eA*eG*eG) [compound 416509]” stands 56%; under “416510 (antisense eG*eA*e[5mC]*eG*eA*dG*dG*d[5mC]*d[5mC]*dT*d[5mC]*dA*dG*dG*dT*eG*eG*eA*e[5mC]*eG) [compound 416510]”, 30%. Same read-out and setting: with “416511 (antisense eT*eT*eG*e[5mC]*eT*dG*dG*dG*dA*dG*dG*dA*d[5mC]*dG*dA*eG*eG*e[5mC]*e[5mC]*eT) [compound 416511]” the figure was 35%; with “416512 (antisense eG*eA*e[5mC]*eG*eA*d[5mC]*d[5mC]*dT*dT*dT*dG*d[5mC]*dT*dG*dG*eG*eA*eG*eG*eA) [compound 416512]”, 43%; with “416513 (antisense e[5mC]*eT*eG*eA*eT*dG*dT*dG*dA*dA*dA*dA*d[5mC]*d[5mC]*dG*eG*e[5mC]*eA*eT*eG) [compound 416513]”, 37%.

In the case of “416514 (antisense eG*eT*eA*eT*eT*dT*dT*d[5mC]*dT*dG*dA*dT*dG*dT*dG*eA*eA*eA*eA*e[5mC]) [compound 416514]”, the “% Inhibition” value is on record as 8%. Consider “416515 (antisense eT*eA*eG*eG*e[5mC]*dA*dT*dG*dA*d[5mC]*d[5mC]*dA*dT*d[5mC]*d[5mC]*eT*e[5mC]*eA*eA*eT) [compound 416515]”, for which the “% Inhibition” value amounted to 39%.

As to “416516 (antisense eG*eT*eG*eA*eG*dA*dA*dT*dA*d[5mC]*dA*dA*d[5mC]*dA*dG*eA*eT*eG*eA*eG) [compound 416516]”, the “% Inhibition” value was 24%. Turning to “416517 (antisense eG*eG*eG*eT*eG*d[5mC]*dA*dG*dT*dA*dG*d[5mC]*dA*dG*dA*eT*eG*e[5mC]*eA*eA) [compound 416517]”, the “% Inhibition” value is 23%. Take “416518 (antisense eG*eG*eG*eT*eG*dA*d[5mC]*d[5mC]*dA*d[5mC]*dA*d[5mC]*dA*dT*dT*eT*e[5mC]*e[5mC]*eT*eG) [compound 416518]”: the “% Inhibition” value was found to be 55%.

As to “416519 (antisense eA*eA*eA*eT*eA*dT*dG*dG*dG*dA*d[5mC]*d[5mC]*d[5mC]*dA*dA*eA*eG*eT*eG*eG) [compound 416519]”, the “% Inhibition” value turned out to be 9%.

“416520 (antisense e[5mC]*e[5mC]*e[5mC]*eT*e[5mC]*dT*dG*d[5mC]*dA*dA*dA*dT*dA*dT*dG*eG*eG*eA*e[5mC]*e[5mC]) [compound 416520]”: the “% Inhibition” value is recorded as 14%. With “416521 (antisense e[5mC]*eA*e[5mC]*e[5mC]*e[5mC]*d[5mC]*dA*d[5mC]*d[5mC]*dA*dG*dG*dT*dT*dG*eT*eG*e[5mC]*eA*e[5mC]) [compound 416521]”, the “% Inhibition” value amounted to 36%.

As to “416522 (antisense eG*eG*e[5mC]*eT*eG*dA*dG*dA*dA*dT*dT*dG*d[5mC]*d[5mC]*d[5mC]*eA*eG*eG*eG*e[5mC]) [compound 416522]”, the “% Inhibition” value stood at 25%.

Take “416523 (antisense eT*e[5mC]*eT*e[5mC]*eG*dA*dG*dG*dG*d[5mC]*dT*dG*dA*dG*dA*eA*eT*eT*eG*e[5mC]) [compound 416523]”: the “% Inhibition” value is given as 18%. Regarding “416524 (antisense eT*eA*eA*eT*eT*dT*dA*dA*dT*dA*dT*dT*d[5mC]*dA*dG*eA*eT*eG*eG*eT) [compound 416524]”, the “% Inhibition” value is given as 0%.

With “416525 (antisense eT*eA*eT*eG*eA*dG*dT*d[5mC]*d[5mC]*dT*dT*d[5mC]*dT*dA*dG*eT*eG*eA*eA*eT) [compound 416525]”, the “% Inhibition” value came out at 5%.

For the substance “416526 (antisense eT*eG*eT*e[5mC]*e[5mC]*dA*d[5mC]*dA*dT*dG*dA*d[5mC]*d[5mC]*d[5mC]*d[5mC]*eA*e[5mC]*eA*eG*eG) [compound 416526]”, the “% Inhibition” value came out at 19%.

As for “416527 (antisense eG*eA*eG*e[5mC]*eT*dT*d[5mC]*d[5mC]*d[5mC]*dA*dA*dG*dT*dT*dG*eG*e[5mC]*eA*eG*eT) [compound 416527]”, the “% Inhibition” value was found to be 49%. As to “416528 (antisense eT*eG*eA*eT*eA*dA*dA*dA*d[5mC]*d[5mC]*dT*d[5mC]*dT*dG*dG*eA*e[5mC]*eA*e[5mC]*e[5mC]) [compound 416528]”, the “% Inhibition” value was determined as 10%. Still for that read-out and setting: with “416529 (antisense eG*eG*eG*e[5mC]*eT*dG*dA*dG*dA*d[5mC]*dT*dG*dA*dG*dG*eT*e[5mC]*eA*eG*e[5mC]) [compound 416529]” the figure was 18%; with “416530 (antisense eA*eG*eG*eG*eT*dA*dG*d[5mC]*d[5mC]*dT*dT*dT*dG*d[5mC]*d[5mC]*eT*eT*eG*eG*e[5mC]) [compound 416530]”, 35%; with “416531 (antisense eA*eG*eA*eT*eG*dA*d[5mC]*d[5mC]*dA*dG*d[5mC]*dA*dG*dG*dA*eA*eG*e[5mC]*e[5mC]*eT) [compound 416531]”, 19%. In the case of “416532 (antisense eG*eG*eA*e[5mC]*e[5mC]*d[5mC]*dA*dG*dA*dT*dG*dA*d[5mC]*d[5mC]*dA*eG*e[5mC]*eA*eG*eG) [compound 416532]”, the “% Inhibition” value stood at 12%. Consider “416533 (antisense eG*e[5mC]*eA*eT*eT*d[5mC]*dT*dG*dG*dA*d[5mC]*d[5mC]*d[5mC]*dA*dG*eA*eT*eG*eA*e[5mC]) [compound 416533]”, for which the “% Inhibition” value was 41%. Regarding “416534 (antisense eA*eT*eG*e[5mC]*eA*d[5mC]*dA*d[5mC]*d[5mC]*dA*dG*dG*dG*d[5mC]*dT*eG*e[5mC]*eT*eG*eG) [compound 416534]”, the “% Inhibition” value is 32%.

On to “416535 (antisense eG*e[5mC]*eA*eG*eG*dA*dT*dG*d[5mC]*dA*d[5mC]*dA*d[5mC]*d[5mC]*dA*eG*eG*eG*e[5mC]*eT) [compound 416535]”, for which the “% Inhibition” value is on record as 47%. As for “416536 (antisense e[5mC]*eG*eG*eG*eA*dA*dG*dG*d[5mC]*d[5mC]*dT*dG*d[5mC]*d[5mC]*d[5mC]*eT*eG*e[5mC]*eA*eG) [compound 416536]”, the “% Inhibition” value turned out to be 23%. “416537 (antisense eT*eG*eA*e[5mC]*e[5mC]*dA*d[5mC]*dT*d[5mC]*dT*dT*d[5mC]*d[5mC]*dG*dA*eG*e[5mC]*eA*eG*e[5mC]) [compound 416537]”: the “% Inhibition” value is 55%. As to “416538 (antisense e[5mC]*eG*eT*eG*eG*dA*d[5mC]*dT*dG*dA*dT*d[5mC]*d[5mC]*dA*dA*eA*eG*eG*eA*e[5mC]) [compound 416538]”, the “% Inhibition” value came out at 46%. Regarding “416539 (antisense eG*eA*e[5mC]*eA*eG*dA*dG*d[5mC]*d[5mC]*dT*dG*dA*dG*d[5mC]*dT*eT*eG*eG*e[5mC]*eA) [compound 416539]”, the “% Inhibition” value was found to be 53%. Take “416540 (antisense eG*eG*eA*e[5mC]*eT*dG*dG*dT*dG*dT*d[5mC]*dA*dT*d[5mC]*dT*eG*eG*eG*eA*e[5mC]) [compound 416540]”: the “% Inhibition” value was 38%. The same measure, in the same setting: under “416541 (antisense e[5mC]*e[5mC]*eA*e[5mC]*e[5mC]*d[5mC]*dT*dT*dG*dG*dT*dG*d[5mC]*d[5mC]*d[5mC]*eA*eG*eA*eT*e[5mC]) [compound 416541]” stands 53%; under “416542 (antisense e[5mC]*eA*eG*eG*eG*dT*dG*d[5mC]*d[5mC]*d[5mC]*dA*dT*d[5mC]*d[5mC]*dT*eA*eG*eT*e[5mC]*eA) [compound 416542]”, 56%; under “416543 (antisense eT*e[5mC]*e[5mC]*eT*eG*d[5mC]*dG*dA*dG*dT*dG*dG*dG*dA*dG*eT*eT*eG*eG*eA) [compound 416543]”, 0%.

Regarding “416544 (antisense eA*eT*e[5mC]*e[5mC]*e[5mC]*dA*dT*dT*dT*dT*d[5mC]*d[5mC]*d[5mC]*dA*dG*eG*eA*eG*e[5mC]*e[5mC]) [compound 416544]”, the “% Inhibition” value is 58%.

Take “416545 (antisense eA*eG*eA*eA*eA*d[5mC]*dA*dT*d[5mC]*d[5mC]*d[5mC]*dA*dT*dT*dT*eT*e[5mC]*e[5mC]*e[5mC]*eA) [compound 416545]”: the “% Inhibition” value was 8%. As to “416546 (antisense e[5mC]*e[5mC]*eA*eG*eG*d[5mC]*dT*dG*dG*dT*dT*dT*dG*dG*dA*eG*eA*eA*eA*e[5mC]) [compound 416546]”, the “% Inhibition” value worked out at 21%. With “416547 (antisense eA*eT*eG*eA*eA*dA*dT*dT*d[5mC]*dT*dA*d[5mC]*d[5mC]*dT*dA*eA*eA*eG*eA*eT) [compound 416547]”, the “% Inhibition” value was 0%.
